According to ChEMBL document CHEMBL1201862, “PubChem BioAssay data set” (2004):
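Cells were grown in 96-well plates and exposed to each compound for 48 hours at five concentrations; endpoints were interpolated linearly between bracketing concentrations, or set to the highest concentration if not reached. Abbreviation: GI50, concentration required for 50% inhibition of growth.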 Activity calls are given as the source filed them. No stated cut-off is given here; in the data, active = GI50 up to about 1.1 µM and inactive = higher.

Experiments:
Experiment in all cases: NCI tumour cell line growth inhibition, 48 h
HOP-18 = system: HOP-18
M19-MEL = system: M19-MEL
KM-20L2 = system: KM-20L2
RXF 631 = system: RXF 631
XF498 = system: XF498
SNB-78 = system: SNB-78
DLD-1 = system: DLD-1
DMS-114 = system: DMS-114
DMS-273 = system: DMS-273

Row | SMILES | GI50 (HOP-18) | GI50 (M19-MEL) | GI50 (KM-20L2) | GI50 (RXF 631) | GI50 (XF498) | GI50 (SNB-78) | GI50 (DLD-1) | GI50 (DMS-114) | GI50 (DMS-273)
1 | COc1ccc(-c2onc(-c3c(C)cc(C)cc3C)c2C2=NCCCN2)cc1 | 2.1 µM (inactive) | > 100 µM (inactive) | 33.4 µM (inactive) | 44.4 µM (inactive) | 60 µM (inactive) | 35.1 µM (inactive) | 78.3 µM (inactive) | – | –
2 | O=C1[C@@H]2C(c3ccccc3[N+](=O)[O-])=NO[C@@H]2C(=O)N1c1ccc(Cc2ccc(N3C(=O)[C@H]4C(c5ccccc5[N+](=O)[O-])=NO[C@H]4C3=O)cc2)cc1 | > 100 µM (inactive) | – | > 100 µM (inactive) | – | – | > 100 µM (inactive) | > 100 µM (inactive) | > 100 µM (inactive) | –
3 | COc1ccc(CC(=O)NCCc2ccc(OC)c(OC)c2OC)cc1 | > 100 µM (inactive) | > 100 µM (inactive) | > 100 µM (inactive) | > 100 µM (inactive) | > 100 µM (inactive) | > 100 µM (inactive) | > 100 µM (inactive) | > 100 µM (inactive) | –
4 | O=C1OC(c2cccc(C(F)(F)F)c2)c2ccc3ccccc3c21 (centres undefined) | > 10 µM (inactive) | > 10 µM (inactive) | > 10 µM (inactive) | 3.42 µM (inactive) | > 100 µM (inactive) | > 100 µM (inactive) | 4.79 µM (inactive) | 5.57 µM (inactive) | > 10 µM (inactive)
5 | NC(=S)N/C=C1\C(=O)Oc2ccccc2C1=O | 39.2 µM (inactive) | > 100 µM (inactive) | > 100 µM (inactive) | – | 32.3 µM (inactive) | 94.2 µM (inactive) | 31.2 µM (inactive) | 48.4 µM (inactive) | > 100 µM (inactive)
6 | O=C(Nc1cc(Cl)c(Cl)cc1Cl)C(=O)C1C=CCS1(=O)=O (centres undefined) | > 100 µM (inactive) | > 100 µM (inactive) | > 100 µM (inactive) | – | – | 11.2 µM (inactive) | > 100 µM (inactive) | > 100 µM (inactive) | > 100 µM (inactive)
7 | OC12c3ccccc3C1CCCCCC21OCCCO1 (centres undefined) | > 100 µM (inactive) | > 100 µM (inactive) | > 100 µM (inactive) | – | – | > 100 µM (inactive) | > 100 µM (inactive) | > 100 µM (inactive) | > 100 µM (inactive)
8 | CCC(C)(O)c1cn(-c2cccc(S(=O)(=O)O)c2)nn1 (centres undefined) | > 100 µM (inactive) | – | > 100 µM (inactive) | – | > 100 µM (inactive) | > 100 µM (inactive) | > 100 µM (inactive) | > 100 µM (inactive) | > 100 µM (inactive)
9 | O=S1(=O)OCCOS(=O)(=O)C1(Cl)Cl | – | > 100 µM (inactive) | – | > 100 µM (inactive) | > 100 µM (inactive) | > 100 µM (inactive) | > 100 µM (inactive) | > 100 µM (inactive) | 53.1 µM (inactive)
10 | COc1ccc(-c2nc(N)nc(-c3cc(C)ccc3O)c2Cl)cc1 | > 100 µM (inactive) | 93.3 µM (inactive) | > 100 µM (inactive) | > 100 µM (inactive) | 35.6 µM (inactive) | 24.3 µM (inactive) | 39.9 µM (inactive) | 48.2 µM (inactive) | 43.7 µM (inactive)
11 | CCO/C=C1\N=C(c2ccccc2Br)OC1=O | – | > 100 µM (inactive) | > 100 µM (inactive) | – | > 100 µM (inactive) | > 100 µM (inactive) | > 100 µM (inactive) | > 100 µM (inactive) | > 100 µM (inactive)
12 | CCCCCCC(/C=N/O)C(C)(O)CCC (centres undefined) | – | > 100 µM (inactive) | > 100 µM (inactive) | – | 13.2 µM (inactive) | > 100 µM (inactive) | > 100 µM (inactive) | 73.6 µM (inactive) | > 100 µM (inactive)
13 | Cn1c2c([N+](=O)[O-])cccc2c(=O)c2c(O)cc3c(c21)C=CC(C)(C)O3 | < 0.01 µM (active) | – | 17.7 µM (inactive) | 33.7 µM (inactive) | 11.5 µM (inactive) | 38 µM (inactive) | 24.8 µM (inactive) | 22.8 µM (inactive) | 33.2 µM (inactive)
14 | COc1ccc(OC)c2c3c(ccc12)C(c1ccccc1)OC3=O (centres undefined) | 52.1 µM (inactive) | 45.7 µM (inactive) | > 100 µM (inactive) | – | – | 12.8 µM (inactive) | 63.5 µM (inactive) | 51.8 µM (inactive) | 31.9 µM (inactive)
15 | COC(=O)C(C(=O)C(=O)Nc1nnc(S)[nH]1)c1csc(N)n1 (centres undefined) | > 100 µM (inactive) | > 100 µM (inactive) | > 100 µM (inactive) | > 100 µM (inactive) | > 100 µM (inactive) | > 100 µM (inactive) | > 100 µM (inactive) | – | > 100 µM (inactive)
16 | COc1ccc(NC(=O)CCc2cc(C(C)(C)C)[nH]n2)cc1 | > 100 µM (inactive) | > 100 µM (inactive) | > 100 µM (inactive) | > 100 µM (inactive) | > 100 µM (inactive) | > 100 µM (inactive) | – | – | > 100 µM (inactive)
17 | COc1cc(/C=N\O[Si](C)(C)C(C)(C)C)ccc1O[Si](C)(C)C(C)(C)C | > 100 µM (inactive) | 74.5 µM (inactive) | > 100 µM (inactive) | 30.1 µM (inactive) | 38.6 µM (inactive) | > 100 µM (inactive) | 89.9 µM (inactive) | 28.1 µM (inactive) | > 100 µM (inactive)
18 | COc1cc(C(C)c2cc3c(cc2OCCCCCOc2cc4c(cc2C(C)c2cc(OC)c(OC)c(OC)c2)OCO4)OCO3)cc(OC)c1OC (centres undefined) | – | > 100 µM (inactive) | > 100 µM (inactive) | – | – | – | > 100 µM (inactive) | – | > 100 µM (inactive)
19 | CCOC(=O)CC1(C(=O)OCC)c2[nH]c3ccccc3c2CCN1Cc1ccccc1 (centres undefined) | 23 µM (inactive) | 14.3 µM (inactive) | 17.1 µM (inactive) | – | 24.2 µM (inactive) | 40.7 µM (inactive) | 24.4 µM (inactive) | 18.3 µM (inactive) | 17.3 µM (inactive)
20 | Cn1ccc2c(C(=O)c3ccccc3)cccc2c1=O | – | 74 µM (inactive) | – | – | 47.1 µM (inactive) | – | 44.6 µM (inactive) | 38.5 µM (inactive) | 34.1 µM (inactive)
21 | CN(C)[C@@H]1C(O)=C(C(=O)NCNCCCC(=O)O)C(=O)[C@@]2(O)C(O)=C3C(=O)c4c(O)cccc4[C@@](C)(O)[C@H]3C[C@@H]12 | > 100 µM (inactive) | > 100 µM (inactive) | > 100 µM (inactive) | – | > 100 µM (inactive) | > 100 µM (inactive) | > 100 µM (inactive) | > 100 µM (inactive) | > 100 µM (inactive)
22 | CNc1cccc(-c2cc(O)c3cc4c(cc3n2)OCO4)c1 | 0.881 µM (active) | 0.445 µM (active) | – | – | 3.82 µM (inactive) | 0.318 µM (active) | 0.181 µM (active) | 0.723 µM (active) | 0.35 µM (active)
23 | N#C/C(=C\c1ccc2[nH]ccc2c1)C(=O)c1ccc(O)c(O)c1 | 71.4 µM (inactive) | > 100 µM (inactive) | 61.5 µM (inactive) | – | – | > 100 µM (inactive) | > 100 µM (inactive) | 81.7 µM (inactive) | 57.3 µM (inactive)
24 | O=c1[nH]c(=O)n([C@@H]2O[C@H](CO)[C@@H](O)[C@H]2O)cc1F [5-FLUOROURIDINE] | – | 0.481 µM (active) | 0.594 µM (active) | 1.05 µM (active) | 1.92 µM (inactive) | 0.211 µM (active) | 0.0861 µM (active) | 10.4 µM (inactive) | 0.312 µM (active)
